“And” between values parts separate entries of the source, which are not always exact repeats. Identical values can stand only once. Toxic doses and inconclusive results are not listed. Rule for the calls: active = survival T/C of 150% or more; inactive = T/C below 125% in these data.
Test system: CD2F1 mice, L1210 leukemia ip, survival T/C
Assay: NCI In Vivo Anticancer Drug Screen. Data for tumor model L1210 Leukemia (intraperitoneal) in CD2F1 (CDF1) mice
Conditions: higher = longer survival
In short: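 Antitumor effect is scored in animals hosting a serially transplanted tumor. Values compare compound-dosed animals against vehicle-only controls as a simple quotient.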

[1] = endpoint: mean survival time, dose: 100.0 mg/kg/injection, schedule: Q01DX009 (ip), vehicle: saline with Tween-80
[2] = endpoint: mean survival time, dose: 200.0 mg/kg/injection, schedule: Q01DX009 (ip), vehicle: saline with Tween-80
[3] = endpoint: mean survival time, dose: 400.0 mg/kg/injection, schedule: Q01DX009 (ip), vehicle: saline with Tween-80
[4] = endpoint: mean survival time, dose: 25.0 mg/kg/injection, schedule: Q01DX009 (ip), vehicle: water
[5] = endpoint: mean survival time, dose: 100.0 mg/kg/injection, schedule: Q04DX003 (ip), vehicle: saline sonified
[6] = endpoint: mean survival time, dose: 200.0 mg/kg/injection, schedule: Q04DX003 (ip), vehicle: saline sonified
[7] = endpoint: mean survival time, dose: 400.0 mg/kg/injection, schedule: Q04DX003 (ip), vehicle: saline sonified
[8] = endpoint: mean survival time, dose: 100.0 mg/kg/injection, schedule: Q01DX001 (ip), vehicle: saline with Tween-80
[9] = endpoint: mean survival time, dose: 200.0 mg/kg/injection, schedule: Q01DX001 (ip), vehicle: saline with Tween-80
[10] = endpoint: mean survival time, dose: 400.0 mg/kg/injection, schedule: Q01DX001 (ip), vehicle: saline with Tween-80
[11] = endpoint: mean survival time, dose: 25.0 mg/kg/injection, schedule: Q04DX003 (ip), vehicle: saline with Tween-80
[12] = endpoint: mean survival time, dose: 50.0 mg/kg/injection, schedule: Q04DX003 (ip), vehicle: saline with Tween-80
[13] = endpoint: mean survival time, dose: 100.0 mg/kg/injection, schedule: Q04DX003 (ip), vehicle: saline with Tween-80
[14] = endpoint: mean survival time, dose: 200.0 mg/kg/injection, schedule: Q04DX003 (ip), vehicle: saline with Tween-80
[15] = endpoint: mean survival time, dose: 400.0 mg/kg/injection, schedule: Q04DX003 (ip), vehicle: saline with Tween-80

Measured: T/C

CN(C)c1ccc(-c2cc(C(=O)O)c3cc(I)ccc3n2)c(Cl)c1
inactive: endpoint: mean survival time, dose: 75.0 mg/kg/injection, schedule: Q01DX009 (ip), vehicle: saline 100 % of control | endpoint: mean survival time, dose: 75.0 mg/kg/injection, schedule: Q04DX003 (ip), vehicle: saline 92 % of control | endpoint: mean survival time, dose: 150.0 mg/kg/injection, schedule: Q01DX009 (ip), vehicle: saline 94 % of control | endpoint: mean survival time, dose: 150.0 mg/kg/injection, schedule: Q04DX003 (ip), vehicle: saline 93 % of control | endpoint: mean survival time, dose: 300.0 mg/kg/injection, schedule: Q01DX009 (ip), vehicle: saline 98 % of control | endpoint: mean survival time, dose: 300.0 mg/kg/injection, schedule: Q04DX003 (ip), vehicle: saline 110 % of control

CCC(CCC(C)C1CCC2C3CC=C4CC(O)CCC4(C)C3CCC12C)C(C)C (stereo not given) (tested in a mixture with another compound)
inactive: endpoint: mean survival time, dose: 25.0 mg/kg/injection, schedule: Q01DX009 (ip), vehicle: acetone 93 % of control | endpoint: mean survival time, dose: 100.0 mg/kg/injection, schedule: Q01DX009 (ip), vehicle: acetone 87 % of control

O=C1CCn2cccc21
inactive: endpoint: median survival time, dose: 25.0 mg/kg/injection, schedule: Q04DX002 (ip), vehicle: saline 100 % of control | endpoint: median survival time, dose: 50.0 mg/kg/injection, schedule: Q04DX002 (ip), vehicle: saline 100 % of control | endpoint: median survival time, dose: 100.0 mg/kg/injection, schedule: Q04DX002 (ip), vehicle: saline 100 % of control | endpoint: median survival time, dose: 200.0 mg/kg/injection, schedule: Q04DX002 (ip), vehicle: saline 100 % of control

COc1ccc(-c2sc(/N=C/c3ccc(-c4ccccc4)cc3)c(C#N)c2C)cc1OC
inactive: [1] 97 % of control | [2] 100 % of control | [3] 91 % of control

COC(=O)/C=C(\C)C(=O)OC
inactive: [1] 100 % of control | [2] 94 % of control | [3] 96 % of control

Cc1cc(C)c(COCc2cc(C)c(C)cc2C)cc1C
inactive: [4] 97 % of control | endpoint: mean survival time, dose: 50.0 mg/kg/injection, schedule: Q01DX009 (ip), vehicle: water 86 % of control | endpoint: mean survival time, dose: 100.0 mg/kg/injection, schedule: Q01DX009 (ip), vehicle: water 92 % of control | endpoint: mean survival time, dose: 200.0 mg/kg/injection, schedule: Q01DX009 (ip), vehicle: water 101 % of control | endpoint: mean survival time, dose: 400.0 mg/kg/injection, schedule: Q01DX009 (ip), vehicle: water 103 % of control

COC(c1ccccc1)C(Br)c1ccccc1 (stereo not given)
inactive: [1] 97 % of control | [5] 103 % of control | [2] 97 % of control | [6] 100 % of control | [3] 109 % of control | [7] 105 % of control

FC(F)Cc1cccc(C(F)(F)F)c1
inactive: [8] 107 % of control | [5] 98 % of control | [9] 103 % of control | [6] 100 % of control | [10] 104 % of control | [7] 100 % of control

COc1cccc2c1C(=O)c1c(O)c3c(c(O)c1C2=O)C[C@@](O)(C(=O)CO)C[C@@H]3OC1CC(N(C)C)C(O)C(C)O1 (stereo not given in full)
inactive: endpoint: mean survival time, dose: 0.25 mg/kg/injection, schedule: Q01DX009 (ip), vehicle: saline 118 % of control and 108 % of control | endpoint: mean survival time, dose: 0.5 mg/kg/injection, schedule: Q01DX009 (ip), vehicle: saline 117 % of control and 121 % of control | endpoint: mean survival time, dose: 1.0 mg/kg/injection, schedule: Q01DX009 (ip), vehicle: saline 115 % of control and 124 % of control | endpoint: mean survival time, dose: 2.0 mg/kg/injection, schedule: Q01DX009 (ip), vehicle: saline 97 % of control and 102 % of control

Oc1cccc2c1NCCC2
inactive: [11] 104 % of control | [12] 98 % of control | [13] 91 % of control and 102 % of control

Nc1nc(N)nc(-c2ccccc2)n1
inactive: [13] 96 % of control | [14] 98 % of control | [15] 105 % of control

O=C(CC(SCCN1CCOCC1)c1ccccc1)c1ccc([N+](=O)[O-])cc1 (stereo not given)
inactive: endpoint: mean survival time, dose: 100.0 mg/kg/injection, schedule: Q01DX001 (ip), vehicle: Klucel (hydroxypropylcellulose) (HPC) 93 % of control | endpoint: mean survival time, dose: 200.0 mg/kg/injection, schedule: Q01DX001 (ip), vehicle: Klucel (hydroxypropylcellulose) (HPC) 93 % of control

C(CN1CCOCC1)CN1CN(CCCN2CCOCC2)CN(CCCN2CCOCC2)C1
inactive: [13] 106 % of control | [14] 101 % of control | [15] 113 % of control

C/C(=N/NC(=O)c1ccccc1)c1ccccc1O
inactive: endpoint: mean survival time, dose: 100.0 mg/kg/injection, schedule: Q01DX009 (ip), vehicle: Klucel (hydroxypropylcellulose) (HPC) 92 % of control | endpoint: mean survival time, dose: 100.0 mg/kg/injection, schedule: Q04DX003 (ip), vehicle: Klucel (hydroxypropylcellulose) (HPC) 97 % of control | endpoint: mean survival time, dose: 200.0 mg/kg/injection, schedule: Q01DX009 (ip), vehicle: Klucel (hydroxypropylcellulose) (HPC) 94 % of control | endpoint: mean survival time, dose: 200.0 mg/kg/injection, schedule: Q04DX003 (ip), vehicle: Klucel (hydroxypropylcellulose) (HPC) 100 % of control | endpoint: mean survival time, dose: 400.0 mg/kg/injection, schedule: Q01DX009 (ip), vehicle: Klucel (hydroxypropylcellulose) (HPC) 94 % of control | endpoint: mean survival time, dose: 400.0 mg/kg/injection, schedule: Q04DX003 (ip), vehicle: Klucel (hydroxypropylcellulose) (HPC) 96 % of control

O=C1c2ccccc2C(=O)c2c(NC3CCCCC3)ccc(Nc3ccc(S(=O)(=O)O)cc3)c21
inactive: endpoint: mean survival time, dose: 75.0 mg/kg/injection, schedule: Q01DX001 (ip), vehicle: saline 100 % of control | endpoint: mean survival time, dose: 150.0 mg/kg/injection, schedule: Q01DX001 (ip), vehicle: saline 100 % of control | endpoint: mean survival time, dose: 300.0 mg/kg/injection, schedule: Q01DX001 (ip), vehicle: saline 103 % of control

O=C(COc1ccc(Cl)c(Cl)c1)Nc1ccc[n+](Cc2ccccc2)c1
inactive: endpoint: mean survival time, dose: 12.5 mg/kg/injection, schedule: Q04DX003 (ip), vehicle: saline with Tween-80 104 % of control | [11] 98 % of control | [12] 89 % of control

CC1(C)SC2C(NC(=O)Cc3ccccc3)C(=O)N2C1C(=O)O (stereo not given)
inactive: endpoint: mean survival time, dose: 25.0 mg/kg/injection, schedule: Q01DX001 (ip), vehicle: saline 97 % of control | endpoint: mean survival time, dose: 25.0 mg/kg/injection, schedule: Q04DX002 (ip), vehicle: saline 97 % of control | endpoint: mean survival time, dose: 50.0 mg/kg/injection, schedule: Q01DX001 (ip), vehicle: saline 100 % of control | endpoint: mean survival time, dose: 50.0 mg/kg/injection, schedule: Q04DX002 (ip), vehicle: saline 100 % of control | endpoint: mean survival time, dose: 100.0 mg/kg/injection, schedule: Q01DX001 (ip), vehicle: saline 100 % of control and 102 % of control | endpoint: mean survival time, dose: 100.0 mg/kg/injection, schedule: Q04DX002 (ip), vehicle: saline 97 % of control and 100 % of control | endpoint: mean survival time, dose: 200.0 mg/kg/injection, schedule: Q01DX001 (ip), vehicle: carboxymethylcellulose (CMC) 104 % of control | endpoint: mean survival time, dose: 200.0 mg/kg/injection, schedule: Q01DX001 (ip), vehicle: saline 97 % of control and 100 % of control | endpoint: mean survival time, dose: 200.0 mg/kg/injection, schedule: Q04DX002 (ip), vehicle: saline 102 % of control and 104 % of control | endpoint: mean survival time, dose: 400.0 mg/kg/injection, schedule: Q01DX001 (ip), vehicle: carboxymethylcellulose (CMC) 100 % of control

NC(=O)CCC(N)C(=O)O.[Cl-].[Cl-].[Cl-].[Cl-].[Pt+2] (stereo not given)
inactive: endpoint: mean survival time, dose: 12.5 mg/kg/injection, schedule: Q01DX009 (ip), vehicle: water 107 % of control | [4] 100 % of control | endpoint: mean survival time, dose: 25.0 mg/kg/injection, schedule: Q04DX003 (ip), vehicle: saline 111 % of control | endpoint: mean survival time, dose: 50.0 mg/kg/injection, schedule: Q04DX003 (ip), vehicle: saline 119 % of control

CC(C)C1C=C2CCC3C(C)(C(=O)O)CCCC3(C)C2CC1 (stereo not given)
inactive: [8] 96 % of control | [9] 94 % of control | [10] 92 % of control

N#CCS(=O)(=O)c1ccccc1
inactive: endpoint: mean survival time, dose: 12.5 mg/kg/injection, schedule: Q01DX001 (ip), vehicle: saline with Tween-80 95 % of control | endpoint: mean survival time, dose: 25.0 mg/kg/injection, schedule: Q01DX001 (ip), vehicle: saline with Tween-80 98 % of control | endpoint: mean survival time, dose: 50.0 mg/kg/injection, schedule: Q01DX001 (ip), vehicle: saline with Tween-80 96 % of control and 98 % of control

O=c1[nH]c(N[N+](=O)[O-])nc(-c2ccccc2)c1Br
inactive: endpoint: mean survival time, dose: 100.0 mg/kg/injection, schedule: Q04DX002 (ip), vehicle: saline with Tween-80 103 % of control | endpoint: mean survival time, dose: 200.0 mg/kg/injection, schedule: Q04DX002 (ip), vehicle: saline with Tween-80 100 % of control | endpoint: mean survival time, dose: 400.0 mg/kg/injection, schedule: Q04DX002 (ip), vehicle: saline with Tween-80 92 % of control

From PubChem BioAssay AID256 (DTP/NCI, 2004)
